According to ChEMBL document CHEMBL2203227, “Macrocycles are great cycles: applications, opportunities, and challenges of synthetic macrocycles in drug discovery” (J Med Chem, 2011):
One block for each compound: values may come before it.

Legend:
[1] = Selectivity ratio of human elastase to HCV NS3 protease
[2] = Oral bioavailability in dog; type: ADME, organism-based, Canis lupus familiaris; conditions: in vivo
Hepatitis C virus [3] = experiment: microbe, parasite or virus in culture; conditions: subtype 1a
Description: Antiviral activity against HCV1a by cell based replicon assay

[4] = Half life in rat; type: ADME, organism-based; conditions: in vivo
[5] = Half life in dog; type: ADME, organism-based, Canis lupus familiaris; conditions: in vivo
[6] = Inhibition of HCV 1a NS3 protease; design: species or system Hepatitis C virus subtype 1a
Hepatitis C virus [7] = experiment: microbe, parasite or virus in culture; conditions: genotype 1b
Description: Antiviral activity against HCV1b by cell based replicon assay

in vivo [8] = conditions: rat, liver/plasma
Description: Ratio of drug level in liver to plasma of rat

in vivo [9] = conditions: rat
[10] = Antagonist activity at GABA-gated chloride channel; type: functional
D(1A) dopamine receptor = D(1A) dopamine receptor (Homo sapiens, UniProt P21728); experiment: Antagonist activity at dopamine D1 receptor; type: functional
Adenosine receptor A3 = Adenosine receptor A3 (Homo sapiens, UniProt P0DMS8); experiment: Antagonist activity at adenosine A3 receptor; type: functional
[11] = target: High affinity choline transporter 1 (Homo sapiens, UniProt Q9GZV3); experiment: Antagonist activity at CHT1; type: functional
[12] = target: C-X-C chemokine receptor type 4 (Homo sapiens, UniProt P61073); experiment: Antagonist activity at CXCR4; type: functional
[13] = Inhibition of HCV5 NS3 protease; design: species or system Hepatitis C virus genotype 5
[14] = Inhibition of HCV4 NS3 protease; design: species or system Hepatitis C virus genotype 4
[15] = Inhibition of HCV 3a NS3 protease; design: species or system Hepatitis C virus subtype 3a
[16] = Inhibition of HCV 2b NS3 protease; design: species or system Hepatitis C virus subtype 2b
Hepatitis C virus [17] = experiment: Inhibition of HCV 1b NS3 protease; design: species or system Hepatitis C virus subtype 1b; conditions: Hepatitis C virus
[18] = Inhibition of HCV6 NS3 protease; design: species or system Hepatitis C virus genotype 6
[19] = Ratio of drug level in liver to plasma of monkey; type: ADME, tissue-based, Macaca mulatta; conditions: rhesus monkey
Hepatitis C virus [20] = experiment: microbe, parasite or virus in culture
Description: Antiviral activity against HCV by cell based replicon assay

[21] = target: T1, Growth hormone secretagogue receptor type 1 (Homo sapiens, UniProt Q92847); experiment: Agonist activity at ghrelin receptor by cell based assay; type: functional
[22] = target: T1, Growth hormone secretagogue receptor type 1; experiment: Agonist activity at ghrelin receptor; type: functional
[23] = target: T2, Growth factor receptor-bound protein 2 (Homo sapiens, UniProt P62993); experiment: Inhibition of SH2 domain of GRB2 in human MDA-MB-453 cells; type: cell-based
[24] = target: T2, Growth factor receptor-bound protein 2; experiment: Inhibition of SH2 domain of GRB2 in human MDA-MB-231 cells; type: cell-based
[25] = target: T2, Growth factor receptor-bound protein 2; experiment: Inhibition of SH2 domain of GRB2 by whole cell based assay
[26] = target: High affinity nerve growth factor receptor (Homo sapiens, UniProt P04629); experiment: Inhibition of TrkA assessed as inhibition of mAb5C3 binding
Beta-secretase 1 = Beta-secretase 1 (Homo sapiens, UniProt P56817); experiment: Inhibition of BACE1 by cell based assay
[27] = Oral bioavailability in monkey; type: ADME, organism-based, Macaca mulatta; conditions: rhesus monkey, in vivo
[28] = Half life in monkey; type: ADME, organism-based, Macaca mulatta; conditions: rhesus monkey, in vivo
[29] = Oral bioavailability in rat; type: ADME, organism-based; conditions: in vivo
[30] = Protein binding in human plasma; type: ADME, cell-free; conditions: read-out: PPB (converted)
Renin = target: T3, Renin (Homo sapiens, UniProt P00797); experiment: Inhibition of renin
T3 sequence (P00797 whole entry): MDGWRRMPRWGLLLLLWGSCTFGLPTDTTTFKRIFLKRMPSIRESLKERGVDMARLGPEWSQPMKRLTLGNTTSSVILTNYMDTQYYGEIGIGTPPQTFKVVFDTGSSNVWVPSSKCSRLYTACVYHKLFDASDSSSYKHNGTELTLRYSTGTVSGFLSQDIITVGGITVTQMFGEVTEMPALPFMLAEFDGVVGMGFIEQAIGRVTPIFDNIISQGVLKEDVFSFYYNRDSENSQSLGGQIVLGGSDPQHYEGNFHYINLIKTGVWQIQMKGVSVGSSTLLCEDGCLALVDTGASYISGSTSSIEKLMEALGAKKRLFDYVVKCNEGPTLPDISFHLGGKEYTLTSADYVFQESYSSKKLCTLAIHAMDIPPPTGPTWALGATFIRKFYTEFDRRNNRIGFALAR

[31] = Oral bioavailability in rhesus monkey; type: ADME, organism-based, Macaca mulatta; conditions: in vivo
[32] = target: Cyclin-dependent kinase 2 (Homo sapiens, UniProt P24941); experiment: Inhibition of CDK2
[33] = target: Cyclin-dependent kinase 1 (Homo sapiens, UniProt P06493); experiment: Inhibition of CDK1
MCF7 = experiment: cells; conditions: Homo sapiens
Description: Antiproliferative activity against human MCF7 cells

[34] = target: T1, Growth hormone secretagogue receptor type 1; experiment: Antagonist activity at ghrelin receptor assessed as inhibition of ghrelin-induced Ca2+ release by cell based assay; type: functional

T1 sequence (Q92847 whole entry): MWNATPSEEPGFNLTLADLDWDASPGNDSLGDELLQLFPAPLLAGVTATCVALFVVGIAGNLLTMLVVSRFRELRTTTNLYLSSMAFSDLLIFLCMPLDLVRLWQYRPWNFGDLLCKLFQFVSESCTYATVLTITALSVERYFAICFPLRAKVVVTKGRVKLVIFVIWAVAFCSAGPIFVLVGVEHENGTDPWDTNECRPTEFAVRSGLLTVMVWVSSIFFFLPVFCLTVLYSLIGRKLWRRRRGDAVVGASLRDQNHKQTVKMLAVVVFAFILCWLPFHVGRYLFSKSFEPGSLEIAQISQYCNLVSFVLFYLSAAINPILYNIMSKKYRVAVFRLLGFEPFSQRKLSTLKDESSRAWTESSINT
High affinity nerve growth factor receptor, sequence (P04629 whole entry): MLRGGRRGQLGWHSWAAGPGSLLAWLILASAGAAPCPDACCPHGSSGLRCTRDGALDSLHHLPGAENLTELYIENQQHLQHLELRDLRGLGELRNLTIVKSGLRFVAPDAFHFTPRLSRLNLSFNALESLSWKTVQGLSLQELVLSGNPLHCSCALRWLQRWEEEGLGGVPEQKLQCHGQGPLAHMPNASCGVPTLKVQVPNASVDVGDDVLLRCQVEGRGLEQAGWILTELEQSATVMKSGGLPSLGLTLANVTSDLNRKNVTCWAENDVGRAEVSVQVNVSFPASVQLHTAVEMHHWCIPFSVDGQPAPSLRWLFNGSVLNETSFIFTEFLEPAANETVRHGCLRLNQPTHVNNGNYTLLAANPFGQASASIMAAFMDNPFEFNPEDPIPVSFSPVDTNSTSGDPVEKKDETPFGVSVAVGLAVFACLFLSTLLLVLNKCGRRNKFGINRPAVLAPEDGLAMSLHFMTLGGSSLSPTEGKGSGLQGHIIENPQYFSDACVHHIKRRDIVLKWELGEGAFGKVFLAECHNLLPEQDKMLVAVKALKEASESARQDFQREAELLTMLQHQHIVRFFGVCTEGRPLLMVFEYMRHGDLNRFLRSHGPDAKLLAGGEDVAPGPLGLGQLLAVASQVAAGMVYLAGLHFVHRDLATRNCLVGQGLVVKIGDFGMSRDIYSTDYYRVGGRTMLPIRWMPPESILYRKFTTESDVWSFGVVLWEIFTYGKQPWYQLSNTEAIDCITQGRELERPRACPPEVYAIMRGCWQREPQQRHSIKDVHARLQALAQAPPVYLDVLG
Adenosine receptor A3, sequence (P0DMS8 whole entry): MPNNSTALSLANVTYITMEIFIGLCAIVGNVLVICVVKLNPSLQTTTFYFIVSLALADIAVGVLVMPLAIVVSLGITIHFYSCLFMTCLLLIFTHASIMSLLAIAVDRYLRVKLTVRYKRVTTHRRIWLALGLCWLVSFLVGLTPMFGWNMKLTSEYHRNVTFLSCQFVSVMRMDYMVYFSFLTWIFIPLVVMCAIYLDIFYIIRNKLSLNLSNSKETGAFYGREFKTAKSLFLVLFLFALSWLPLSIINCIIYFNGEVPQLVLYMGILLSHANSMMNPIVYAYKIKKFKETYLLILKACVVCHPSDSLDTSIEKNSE
Cyclin-dependent kinase 1, sequence (P06493 whole entry): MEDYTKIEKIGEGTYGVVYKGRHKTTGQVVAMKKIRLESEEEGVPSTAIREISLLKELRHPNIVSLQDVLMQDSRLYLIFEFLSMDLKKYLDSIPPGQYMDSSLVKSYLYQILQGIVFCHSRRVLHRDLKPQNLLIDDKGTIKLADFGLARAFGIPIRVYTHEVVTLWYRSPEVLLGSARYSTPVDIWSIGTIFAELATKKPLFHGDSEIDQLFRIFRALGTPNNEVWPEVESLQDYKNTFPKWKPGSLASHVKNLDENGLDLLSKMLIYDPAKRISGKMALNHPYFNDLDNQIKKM
D(1A) dopamine receptor, sequence (P21728 whole entry): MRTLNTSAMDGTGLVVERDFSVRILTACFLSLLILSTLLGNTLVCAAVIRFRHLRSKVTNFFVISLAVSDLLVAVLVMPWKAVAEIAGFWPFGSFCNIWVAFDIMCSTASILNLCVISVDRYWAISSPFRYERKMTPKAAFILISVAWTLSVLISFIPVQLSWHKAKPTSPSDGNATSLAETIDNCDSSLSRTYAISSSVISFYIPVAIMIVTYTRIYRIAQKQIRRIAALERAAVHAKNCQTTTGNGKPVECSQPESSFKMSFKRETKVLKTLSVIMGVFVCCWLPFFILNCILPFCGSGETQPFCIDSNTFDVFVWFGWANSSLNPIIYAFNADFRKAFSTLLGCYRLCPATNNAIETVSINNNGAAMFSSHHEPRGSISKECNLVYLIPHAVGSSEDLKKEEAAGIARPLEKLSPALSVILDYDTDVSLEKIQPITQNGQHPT
C-X-C chemokine receptor type 4, sequence (P61073 whole entry): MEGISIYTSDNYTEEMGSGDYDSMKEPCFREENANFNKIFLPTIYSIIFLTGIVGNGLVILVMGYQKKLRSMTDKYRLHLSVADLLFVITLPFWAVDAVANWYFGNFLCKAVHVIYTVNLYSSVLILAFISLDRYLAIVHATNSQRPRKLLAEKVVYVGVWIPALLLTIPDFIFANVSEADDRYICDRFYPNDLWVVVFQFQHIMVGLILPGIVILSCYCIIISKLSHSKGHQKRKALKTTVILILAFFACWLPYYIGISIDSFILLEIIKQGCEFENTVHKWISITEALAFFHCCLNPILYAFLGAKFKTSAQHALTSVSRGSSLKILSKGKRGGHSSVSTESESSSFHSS
Beta-secretase 1, sequence (P56817 whole entry): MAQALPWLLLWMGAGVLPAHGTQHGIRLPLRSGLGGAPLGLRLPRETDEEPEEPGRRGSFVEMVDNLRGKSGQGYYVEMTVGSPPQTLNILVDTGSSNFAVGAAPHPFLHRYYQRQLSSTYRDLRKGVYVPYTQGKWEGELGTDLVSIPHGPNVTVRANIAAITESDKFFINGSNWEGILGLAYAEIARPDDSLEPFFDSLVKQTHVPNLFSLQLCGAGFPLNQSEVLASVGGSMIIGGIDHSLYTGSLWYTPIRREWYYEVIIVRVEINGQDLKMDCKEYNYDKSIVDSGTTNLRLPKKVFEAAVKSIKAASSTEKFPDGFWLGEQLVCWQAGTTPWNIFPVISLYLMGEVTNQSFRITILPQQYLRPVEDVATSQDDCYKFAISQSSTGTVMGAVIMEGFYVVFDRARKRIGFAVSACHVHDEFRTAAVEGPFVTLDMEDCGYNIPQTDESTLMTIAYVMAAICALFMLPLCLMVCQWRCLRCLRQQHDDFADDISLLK
High affinity choline transporter 1, sequence (Q9GZV3 whole entry): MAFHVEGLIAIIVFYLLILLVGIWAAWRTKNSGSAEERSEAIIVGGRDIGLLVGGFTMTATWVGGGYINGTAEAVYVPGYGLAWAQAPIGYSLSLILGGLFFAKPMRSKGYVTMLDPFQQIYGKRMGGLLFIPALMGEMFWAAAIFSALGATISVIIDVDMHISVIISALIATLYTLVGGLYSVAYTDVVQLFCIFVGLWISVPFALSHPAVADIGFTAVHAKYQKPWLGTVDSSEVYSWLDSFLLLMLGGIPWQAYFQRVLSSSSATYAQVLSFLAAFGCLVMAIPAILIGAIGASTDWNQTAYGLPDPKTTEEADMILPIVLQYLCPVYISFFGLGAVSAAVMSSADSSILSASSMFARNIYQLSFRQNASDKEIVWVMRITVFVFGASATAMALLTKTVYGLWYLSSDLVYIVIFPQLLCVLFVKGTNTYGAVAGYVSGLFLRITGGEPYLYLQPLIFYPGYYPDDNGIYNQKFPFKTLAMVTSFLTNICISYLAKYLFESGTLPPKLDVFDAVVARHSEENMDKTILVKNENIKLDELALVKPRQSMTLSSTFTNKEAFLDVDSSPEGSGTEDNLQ

SMILES: CC(C)(C)NC(=O)N[C@H](C(=O)N1C[C@H]2[C@@H]([C@H]1C(=O)NC(CC1CCC1)C(=O)C(N)=O)C2(C)C)C(C)(C)C (stereo partly specified)
Selectivity ratio [1]: 2800

SMILES: Cn1c2cnc1OCC/C=C\CCCCOc1ccccc1-2
IC50 [10]: 7200 nM
IC50 (D(1A) dopamine receptor): 1100 nM
IC50 (Adenosine receptor A3): 850 nM
IC50 [11]: 3200 nM

SMILES: CC(C)(C)OC(=O)N[C@H]1CCCCC/C=C\[C@@H]2C[C@@]2(C(=O)NS(=O)(=O)C2CC2)NC(=O)[C@@H]2C[C@@H](OC(=O)N3Cc4cccc(F)c4C3)CN2C1=O [DANOPREVIR]
IC50 [13]: 0.2 nM
IC50 [14]: 0.2 nM
IC50 [15]: 0.2 nM
IC50 [16]: 0.2 nM
IC50 [6]: 0.2 nM
IC50 (Hepatitis C virus [17]): 0.2 nM
IC50 [18]: 0.2 nM
Kp (in vivo [8]): 10
Kp [19]: 100
EC50 (Hepatitis C virus [20]): 1.8 nM

SMILES: CC[C@H](C)[C@@H]1NCCOc2ccccc2CCCNC(=O)[C@@H](Cc2ccc(Cl)cc2)NC(=O)[C@@H](C)N(C)C1=O
EC50 [21]: 14 nM
Ki [22]: 1 nM

SMILES: COc1ccc2c(O[C@@H]3C[C@H]4C(=O)N[C@]5(C(=O)O)C[C@H]5/C=C\CCCCC[C@H](NC(=O)OC5CCCC5)C(=O)N4C3)cc(-c3csc(NC(C)C)n3)nc2c1
bioavailability [27]: 7%
bioavailability [2]: 36%
half-life [28]: 7 h
half-life [4]: 0.8 h
bioavailability [29]: 13%
fraction unbound [30]: 0.009
half-life [5]: 4.2 h
Ki [6]: 0.3 nM

SMILES: O=C1CCC[C@H](CN2CCOCC2)OC(=O)[C@H](O)[C@H](CC2CCCCC2)NC(=O)[C@@H](NC(=O)[C@H](Cc2ccccc2)N[C@@H]2CN3CCC2CC3)CO1
IC50 (Renin): 1.3 nM
bioavailability [31]: 1%

Second part, the compound after the results:

bioavailability [2]: 100%
EC50 (Hepatitis C virus [3]): 28 nM
half-life [4]: 4 h
half-life [5]: 5.1 h
Ki [6]: 0.5 nM
EC50 (Hepatitis C virus [7]): 25 nM
Kp (in vivo [8]): > 35
clearance (in vivo [9]): 38 mL/min/kg
SMILES: COc1ccc2c(O[C@@H]3C[C@H]4C(=O)N[C@]5(C(=O)NS(=O)(=O)C6CC6)C[C@H]5/C=C\CCCCN(C)C(=O)[C@@H]4C3)cc(-c3nc(C(C)C)cs3)nc2c1C

IC50 [12]: 12.4 nM
SMILES: c1ccc(CNCc2ccc(CN3CCCNCCNCCCNCC3)cc2)nc1

IC50 [23]: 630 nM
IC50 [24]: > 10000 nM
IC50 [25]: ≤ 10 nM
SMILES: Cc1ccc2c(ccn2C[C@@H]2C/C=C/[C@H](c3ccc(CP(=O)(O)O)cc3)[C@H](CC(=O)O)C(=O)NC3(CCCCC3)C(=O)N[C@@H](CC(N)=O)C(=O)NC2)c1

IC50 [26]: 4000 nM
SMILES: NCCCC[C@@H]1NC(=O)c2cc([N+](=O)[O-])ccc2NCc2ccc(C(N)=O)cc2NC(=O)[C@H](CO)NC1=O

IC50 (Beta-secretase 1): 2100 nM
SMILES: CC(C)[C@H](NC(=O)OC(C)(C)C)C(=O)N[C@@H](C)C(=O)N[C@@H](Cc1ccccc1)[C@@H](O)C[C@@H](C)C(=O)N[C@H](C(=O)NCc1ccncc1)C(C)C

IC50 [32]: 100 nM
IC50 [33]: 100 nM
IC50 (MCF7): 4000 nM
SMILES: N#CCNc1nc(Nc2ccccc2)ncc1Br

IC50 [34]: 500 nM
Ki [22]: 100 nM
SMILES: CC[C@H](C)[C@@H]1NCCOc2ccccc2CCCNC(=O)[C@@H](Cc2ccccc2)NC(=O)[C@H](CO)N(C)C1=O
